{"source": "patent US20190016689A1", "about": "“NOVEL FLUORINATED QUINAZOLINE DERIVATIVES AS EGFR INHIBITORS” (TRILLIUM THERAPEUTICS INC., priority 2016, published 2019)", "key": {"P-gp": {"system": "P-gp", "test": "in vitro", "settings": "human, Caco-2, pH 7.4", "protocol": "At this stage of growth, cell monolayers were fully polarized and differentiated.\nThe permeability assay buffer was Hanks Balanced Salt Solution containing 10 mM HEPES and 15 mM glucose at a pH of 7.4. The dosing buffer contained 5 μM metoprolol (positive control), 5 μM atenolol (negative control) and 100 μM lucifer yellow. The buffer in the receiver chamber also contained 1% bovine serum albumin (BSA). The dosing solution concentration was 5 μM in the assay buffer. Digoxin (20 μM) was used as Pgp substrate control.\nThe known Pgp inhibitor was co-dosed at 50 μM with compound at 5 μM.\nCell monolayers were dosed on the apical side (A-to-B) or basolateral side (B-to-A) and incubated at 37° C. in a shaker (65 rpm). Samples were taken from the donor and receiver chambers at 120 minutes. Each determination was performed in duplicate.\nNarrow-window mass extraction LC/MS analysis was performed for all samples from this study using a Waters Xevo quadrupole time-of-flight (QTof) mass spectrometer, to determine relative peak areas of parent compound. The percent of transported drug was calculated based on these peak areas, relative to the initial, dosing concentration."}, "hepatocytes": {"system": "hepatocytes", "test": "Metabolic stability (hepatocytes)", "assay_type": "in vitro ADME", "settings": "1 μM", "protocol": "a) Place incubation medium (William's E Medium supplemented with GlutaMAX) and hepatocyte thawing medium in a 37° C. water bath, and allow warming for at least 15 minutes prior to use. b) Remove a vial of cryopreserved hepatocytes from storage, ensuring that vials remain at cryogenic temperatures until thawing process ensues. Thaw the cells by placing the vial in a 37° C. water bath and gently shaking the vials for 2 minutes. After thawing is completed, spray vial with 70% ethanol, transfer the vial to a biosafety cabinet. c) Use wide-bore pipette tip to transfer hepatocytes into 50 mL conical tube containing thawing medium. Place the 50 mL conical tube into a centrifuge and spin at 100 g for 10 minutes. Upon completion of spin, aspirate thawing medium and resuspend hepatocytes in enough incubation medium to yield ˜1.5×10^6 cells/mL. d) Using a Trypan Blue exclusion, count cells and determine the viable cell density. Cells with poor viability (<75% viability) are not acceptable for use. Dilute cells with incubation medium to a working cell density of 0.5×10^6 viable cells/mL. e) A portion of the hepatocytes at 0.5×10^6 viable cells/mL was boiled for 5 min prior to adding to the plate as negative control to eliminate the enzymatic activity so that little or no substrate turnover should be observed. The boiled hepatocytes are used to prepare negative control samples, which used to exclude the misleading factor that resulted from instability of chemical itself. Negative control wells are prepared in duplicate.\na) Pipette 198 μL of hepatocytes into each wells of a 96-well non-coated plate. Place the plate in the CO2 incubator at 37° C. on an orbital shaker to allow the hepatocytes to warm for 10 minutes. b) Pipette 2 μL of the 100 μM test compounds or positive control into respective wells of the 96-well plate to start the reaction. c) Return the plate to the incubator and place on an orbital shaker with a shaking speed of 150 rpm. The reaction for each compound will be performed in duplicate.\na) Remove 25 μL aliquots of reaction mixture at time points of 0, 15, 30, 60, 90 and 120 minutes. b) The aliquots are then mixed with 6 volumes (150 μL) of acetonitrile containing internal standards (IS: 100 nM alprazolam, 200 nM labetalol, and 2 μM ketoprofen) to terminate the reaction. Centrifuge the plate for 20 minutes at 3,800 g. Aliquots of 100 μL of the supernatants will be mixed with 100 μL ultrapure water and used for LC/MS/MS analysis."}}, "data": [{"smiles": "CN(C)C/C=C/C(=O)Nc1cc2c(Nc3cccc(Cl)c3F)ncnc2cc1OCCOC(F)F.O=C(O)/C=C\\C(=O)O", "note": "[Example I-5-MA, (E)-N-[4-(3-chloro-2-fluoro-anilino)-7-[2-(difluoromethoxy)ethoxy]quinazolin-6-yl]-4-(dimethylamino)but-2-enamide dimaleic acid salt]", "values": [{"measurement": "efflux ratio at 120 min, 5 µM", "setting": "P-gp", "result": 0.48}, {"measurement": "% Remaining @ 120 min", "setting": "hepatocytes; Dog hepatocytes", "result": 47.29, "unit": "%"}, {"measurement": "% Remaining @ 120 min", "setting": "hepatocytes; Human hepatocytes", "result": 82.95, "unit": "%"}, {"measurement": "% Remaining @ 120 min", "setting": "hepatocytes; Monkey hepatocytes", "result": 21.97, "unit": "%"}, {"measurement": "% Remaining @ 120 min", "setting": "hepatocytes; Mouse hepatocytes", "result": 36.27, "unit": "%"}, {"measurement": "% Remaining @ 120 min", "setting": "hepatocytes; Rat hepatocytes", "result": 59.08, "unit": "%"}]}]}
